Results taken from ChEMBL document CHEMBL3885861, “Open TG-GATES”.

Species on record: Rattus norvegicus
Assay: Open TG-GATES - Regimen: Daily Repeat
Type: toxicity, organism-based, Sprague-Dawley
Set-up: regimen Daily Repeat, gender Male, age 6 weeks
Conditions: in vivo, po, 6 mg/kg, route gavage, dose level Low; for APTT / Bas / Eos / Fbg / Hb / Ht / Lym / MCH / MCHC / MCV / Mono / Neu / PT / Plat / RBC / Ret / WBC: tissue Blood; for LIVER: tissue Liver; for A/G / ALP / ALT / AST / BUN / CRE / Ca / Cl / DBIL / GLC / IP / K / LDH / Na / PL / RALB / TBIL / TC / TG / TP / gamma-GTP: tissue Plasma

O=[N+]([O-])c1ccc(O)c([N+](=O)[O-])c1 [2,4-DINITROPHENOL]
TERMINAL_BW (72 h, time 3 day): 247 g | APTT (72 h, time 3 day): 16.5 s | Bas (72 h, time 3 day): 0% | Eos (72 h, time 3 day): 1% | Fbg (72 h, time 3 day): 280.8 mg/dL | Hb (72 h, time 3 day): 13.5 g/dL | Ht (72 h, time 3 day): 39.7% | Lym (72 h, time 3 day): 70% | MCH (72 h, time 3 day): 21.5 pg | MCHC (72 h, time 3 day): 34% | MCV (72 h, time 3 day): 63.2 fL | Mono (72 h, time 3 day): 9.4% | Neu (72 h, time 3 day): 19.4% | PT (72 h, time 3 day): 11.4 s | Plat (72 h, time 3 day): 143.8 x10_4/uL | RBC (72 h, time 3 day): 628 x10_4/ul | Ret (72 h, time 3 day): 6.1% | WBC (72 h, time 3 day): 100 x10_2/uL | LIVER (72 h, time 3 day): 12.5 g | A/G (72 h, time 3 day): 2.3 | ALP (72 h, time 3 day): 1318.2 IU/L | ALT (72 h, time 3 day): 36 IU/L | AST (72 h, time 3 day): 61.6 IU/L | BUN (72 h, time 3 day): 18.8 mg/dL | CRE (72 h, time 3 day): 0.4 mg/dL | Ca (72 h, time 3 day): 11.6 mg/dL | Cl (72 h, time 3 day): 104.4 meq/L | DBIL (72 h, time 3 day): 0.012 mg/dL | GLC (72 h, time 3 day): 190 mg/dL | IP (72 h, time 3 day): 7.9 mg/dL | K (72 h, time 3 day): 4.9 meq/L | LDH (72 h, time 3 day): 110.2 IU/L | Na (72 h, time 3 day): 137.6 meq/L | PL (72 h, time 3 day): 165.2 mg/dL | RALB (72 h, time 3 day): 4 g/dL | TBIL (72 h, time 3 day): 0.032 mg/dL | TC (72 h, time 3 day): 89.2 mg/dL | TG (72 h, time 3 day): 137.2 mg/dL | TP (72 h, time 3 day): 5.7 g/dL | gamma-GTP (72 h, time 3 day): 0.6 IU/L | TERMINAL_BW ([…], time 7 day): 282.7 g | TERMINAL_BW ([…], time 14 day): 318.6 g | TERMINAL_BW ([…], time 28 day): 445.6 g | APTT ([…], time 7 day): 16.4 s | Bas ([…], time 7 day): 0% | Eos ([…], time 7 day): 0.8% | Fbg ([…], time 7 day): 264.6 mg/dL | Hb ([…], time 7 day): 13.1 g/dL | Ht ([…], time 7 day): 38.6% | Lym ([…], time 7 day): 81.6% | MCH ([…], time 7 day): 21.3 pg | MCHC ([…], time 7 day): 33.9% | MCV ([…], time 7 day): 62.6 fL | Mono ([…], time 7 day): 4.2% | Neu ([…], time 7 day): 13.6% | PT ([…], time 7 day): 11.5 s | Plat ([…], time 7 day): 137.2 x10_4/uL | RBC ([…], time 7 day): 617.8 x10_4/ul | Ret ([…], time 7 day): 5.3% | WBC ([…], time 7 day): 117 x10_2/uL | APTT ([…], time 14 day): 17.1 s | Bas ([…], time 14 day): 0% | Eos ([…], time 14 day): 1% | Fbg ([…], time 14 day): 255.8 mg/dL | Hb ([…], time 14 day): 14.1 g/dL | Ht ([…], time 14 day): 41.5% | Lym ([…], time 14 day): 76.4% | MCH ([…], time 14 day): 20.9 pg | MCHC ([…], time 14 day): 33.9% | MCV ([…], time 14 day): 61.7 fL | Mono ([…], time 14 day): 6.4% | Neu ([…], time 14 day): 16.4% | PT ([…], time 14 day): 11.8 s | Plat ([…], time 14 day): 119.2 x10_4/uL | RBC ([…], time 14 day): 671.8 x10_4/ul | Ret ([…], time 14 day): 3.9% | WBC ([…], time 14 day): 134.2 x10_2/uL | APTT ([…], time 28 day): 16.5 s | Bas ([…], time 28 day): 0% | Eos ([…], time 28 day): 1.2% | Fbg ([…], time 28 day): 282.4 mg/dL | Hb ([…], time 28 day): 14.9 g/dL | Ht ([…], time 28 day): 43.9% | Lym ([…], time 28 day): 76.6% | MCH ([…], time 28 day): 19.6 pg | MCHC ([…], time 28 day): 33.9% | MCV ([…], time 28 day): 57.8 fL | Mono ([…], time 28 day): 5.6% | Neu ([…], time 28 day): 16.8% | PT ([…], time 28 day): 11.8 s | Plat ([…], time 28 day): 121.2 x10_4/uL | RBC ([…], time 28 day): 759.4 x10_4/ul | Ret ([…], time 28 day): 2.2% | WBC ([…], time 28 day): 117.4 x10_2/uL | LIVER ([…], time 7 day): 13.1 g | LIVER ([…], time 14 day): 13.9 g | LIVER ([…], time 28 day): 20 g | A/G ([…], time 7 day): 2.3 | ALP ([…], time 7 day): 1599.8 IU/L | ALT ([…], time 7 day): 36.8 IU/L | AST ([…], time 7 day): 66 IU/L | BUN ([…], time 7 day): 17.6 mg/dL | CRE ([…], time 7 day): 0.3 mg/dL | Ca ([…], time 7 day): 11.4 mg/dL | Cl ([…], time 7 day): 104.8 meq/L | DBIL ([…], time 7 day): 0.012 mg/dL | GLC ([…], time 7 day): 188.2 mg/dL | IP ([…], time 7 day): 7.4 mg/dL | K ([…], time 7 day): 4.5 meq/L | LDH ([…], time 7 day): 115.4 IU/L | Na ([…], time 7 day): 140.8 meq/L | PL ([…], time 7 day): 138.6 mg/dL | RALB ([…], time 7 day): 3.9 g/dL | TBIL ([…], time 7 day): 0.03 mg/dL | TC ([…], time 7 day): 74.2 mg/dL | TG ([…], time 7 day): 121.8 mg/dL | TP ([…], time 7 day): 5.6 g/dL | gamma-GTP ([…], time 7 day): 1 IU/L | A/G ([…], time 14 day): 2.1 | ALP ([…], time 14 day): 1262 IU/L | ALT ([…], time 14 day): 34.8 IU/L | AST ([…], time 14 day): 66.2 IU/L | BUN ([…], time 14 day): 18.8 mg/dL | CRE ([…], time 14 day): 0.4 mg/dL | Ca ([…], time 14 day): 11.1 mg/dL | Cl ([…], time 14 day): 106.2 meq/L | DBIL ([…], time 14 day): 0.01 mg/dL | GLC ([…], time 14 day): 184.6 mg/dL | IP ([…], time 14 day): 6.8 mg/dL | K ([…], time 14 day): 4.7 meq/L | LDH ([…], time 14 day): 114.6 IU/L | Na ([…], time 14 day): 136.8 meq/L | PL ([…], time 14 day): 129.4 mg/dL | RALB ([…], time 14 day): 3.8 g/dL | TBIL ([…], time 14 day): 0.016 mg/dL | TC ([…], time 14 day): 62.4 mg/dL | TG ([…], time 14 day): 125.8 mg/dL | TP ([…], time 14 day): 5.7 g/dL | gamma-GTP ([…], time 14 day): 0 IU/L | A/G ([…], time 28 day): 1.9 | ALP ([…], time 28 day): 1091.6 IU/L | ALT ([…], time 28 day): 33 IU/L | AST ([…], time 28 day): 63.6 IU/L | BUN ([…], time 28 day): 20.2 mg/dL | CRE ([…], time 28 day): 0.5 mg/dL | Ca ([…], time 28 day): 11 mg/dL | Cl ([…], time 28 day): 105.2 meq/L | DBIL ([…], time 28 day): 0.01 mg/dL | GLC ([…], time 28 day): 203 mg/dL | IP ([…], time 28 day): 7.3 mg/dL | K ([…], time 28 day): 4.3 meq/L | LDH ([…], time 28 day): 144.4 IU/L | Na ([…], time 28 day): 140.6 meq/L | PL ([…], time 28 day): 150 mg/dL | RALB ([…], time 28 day): 3.9 g/dL | TBIL ([…], time 28 day): 0.03 mg/dL | TC ([…], time 28 day): 72.6 mg/dL | TG ([…], time 28 day): 199.8 mg/dL | TP ([…], time 28 day): 6 g/dL | gamma-GTP ([…], time 28 day): 0.8 IU/L
